Columns and labels:
Assay in all cases: Ba/F3 drug screening, Cell Titer Glo, IC50 Mut/WT
Type in all cases: cell-based
EGFR L833V = biological target: T1, EGFR L833V (Homo sapiens, UniProt P00533, L833V); conditions: Classical-Like, 72 hours
T1 construct: expressed in transfected cells; host or cells: Ba/F3 cells, retroviral pBabe-Puro vector
Experimental: (§1) Data represent the ratio of the IC50 value for a given TKI for cells with a classical-like EGFR mutation to the IC50 value for cells with wildtype EGFR.
(§2) Ba/F3 cell generation, drug screening, and IC50 approximations. Ba/F3 cells were obtained as a gift from Dr. Gordon Mills (MD Anderson Cancer Center), and maintained in RPMI (Sigma) containing 10% FBS, 1% penicillin/streptomycin, and 10 ng/ml recombinant mIL-3 (R&D Biosystems). To establish stable Ba/F3 cell lines, Ba/F3 cells were transduced with retroviruses containing mutant EGFR plasmids for 12-24 hours.
(§3) After 48-72 hours of transduction, 2 μg/ml puromycin (Invitrogen) was added to Ba/F3 cell lines in complete RPMI. To select for EGFR positive cell lines, cells were stained with PE-EGFR (Biolegend) and sorted by FACS. After sorting, EGFR positive cells were maintained in RPMI containing 10% FBS, 1% penicillin/streptomycin, and 1 ng/ml EGF to support cell viability. […] Shortly, cells were plated in 384-well plates (Greiner Bio-One) at 2000-3000 cells per well in technical triplicate. Seven different concentrations of TKIs or DMSO vehicle were added to reach a final volume of 40 μL per well. After 72 hours, 11 μL of Cell Titer Glo (Promega) was added to each well. Plates were incubated for a minimum of 10 minutes, and bioluminescence was determined using a FLUOstar OPTIMA plate reader (BMG LABTECH). Raw bioluminescence values were normalized to DMSO control treated cells, and values were plotted in GraphPad Prism. […] Drug screens were performed in technical triplicate on each plate and either duplicate or triplicate biological replicates.

EGFR K754E = biological target: T2, EGFR K754E (Homo sapiens, UniProt P00533, K754E); conditions: Classical-Like, 72 hours
T2 construct: expressed in transfected cells; host or cells: Ba/F3 cells, retroviral pBabe-Puro vector

EGFR S811F = biological target: T3, EGFR S811F (Homo sapiens, UniProt P00533, S811F); conditions: Classical-Like, 72 hours
T3 construct: expressed in transfected cells; host or cells: Ba/F3 cells, retroviral pBabe-Puro vector (vector made by GeneScript from EGFR WT)

EGFR A763insLQEA = biological target: T4, EGFR A763insLQEA (Homo sapiens, UniProt P00533, INS763LQEA); conditions: Classical-Like, 72 hours
T4 construct: expressed in transfected cells; host or cells: Ba/F3 cells, retroviral pBabe-Puro vector
Experimental: as §1, §2, §3

EGFR D761N = biological target: T5, EGFR D761N (Homo sapiens, UniProt P00533, D761N); conditions: Classical-Like, 72 hours
T5 construct: expressed in transfected cells; host or cells: Ba/F3 cells, retroviral pBabe-Puro vector

EGFR A767insASV = biological target: T6, EGFR A767insASV (Homo sapiens, UniProt P00533, DUP767-769); conditions: Ex20, 72 hours
T6 construct: expressed in transfected cells; host or cells: Ba/F3 cells, retroviral pBabe-Puro vector

EGFR S768dupSVD = biological target: T7, EGFR S768dupSVD (Homo sapiens, UniProt P00533, DUP768-770); conditions: Ex20, 72 hours
T7 construct: expressed in transfected cells; host or cells: Ba/F3 cells, retroviral pBabe-Puro vector

EGFR D770insNPG = biological target: T8, EGFR D770insNPG (Homo sapiens, UniProt P00533, INS770NPG); conditions: Ex20, 72 hours
T8 construct: expressed in transfected cells; host or cells: Ba/F3 cells, retroviral pBabe-Puro vector

EGFR H773insNPH = biological target: T9, EGFR H773insNPH (Homo sapiens, UniProt P00533, INS773NPH); conditions: Ex20, 72 hours
T9 construct: expressed in transfected cells; host or cells: Ba/F3 cells, retroviral pBabe-Puro vector

EGFR N771dupN = biological target: T10, EGFR N771dupN (Homo sapiens, UniProt P00533, DUP771-771); conditions: Ex20, 72 hours
T10 construct: expressed in transfected cells; host or cells: Ba/F3 cells, retroviral pBabe-Puro vector

EGFR T790M = biological target: T11, EGFR T790M (Homo sapiens, UniProt P00533, T790M); conditions: T790M-like-3S, 72 hours
T11 construct: expressed in transfected cells; host or cells: Ba/F3
Experimental: (§4) Data represent the ratio of the IC50 value for a given TKI for cells with a T790M-like-3S EGFR mutation to the IC50 value for cells with wildtype EGFR.
as §2
(§5) After 48-72 hours of transduction, 2 μg/ml puromycin (Invitrogen) was added to Ba/F3 cell lines in complete RPMI. To select for EGFR positive cell lines, cells were stained with PE-EGFR (Biolegend) and sorted by FACS. After sorting, EGFR positive cells were maintained in RPMI containing 10% FBS, 1% penicillin/streptomycin, and 1 ng/ml EGF to support cell viability. Drug screening was performed as previously described^41,42. Shortly, cells were plated in 384-well plates (Greiner Bio-One) at 2000-3000 cells per well in technical triplicate. Seven different concentrations of TKIs or DMSO vehicle were added to reach a final volume of 40 μL per well. After 72 hours, 11 μL of Cell Titer Glo (Promega) was added to each well. Plates were incubated for a minimum of 10 minutes, and bioluminescence was determined using a FLUOstar OPTIMA plate reader (BMG LABTECH). Raw bioluminescence values were normalized to DMSO control treated cells, and values were plotted in GraphPad Prism. […] Drug screens were performed in technical triplicate on each plate and either duplicate or triplicate biological replicates.

EGFR G719S T790M = biological target: T12, EGFR G719S T790M (Homo sapiens, UniProt P00533, G719S/T790M); conditions: T790M-like-3S, 72 hours
T12 construct: expressed in transfected cells; host or cells: Ba/F3
Experimental: as §4, §2, §5

EGFR S768I/T790M = biological target: T13, EGFR S768I/T790M (Homo sapiens, UniProt P00533, S768I/T790M); conditions: T790M-like-3S, 72 hours
T13 construct: expressed in transfected cells; host or cells: Ba/F3

EGFR L858R T790M V843I = biological target: T14, EGFR L858R T790M V843I (Homo sapiens, UniProt P00533, L858R/T790M/V843I); conditions: T790M-like-3S, 72 hours
T14 construct: expressed in transfected cells; host or cells: Ba/F3
Experimental: as §4, §2, §5

EGFR G724S T790M = biological target: T15, EGFR G724S T790M (Homo sapiens, UniProt P00533, G724S/T790M); conditions: T790M-like-3R, 72 hours
T15 construct: expressed in transfected cells; host or cells: Ba/F3
Experimental: (§6) Data represent the ratio of the IC50 value for a given TKI for cells with a T790M-like-3R EGFR mutation to the IC50 value for cells with wildtype EGFR.
as §2
(§7) After 48-72 hours of transduction, 2 μg/ml puromycin (Invitrogen) was added to Ba/F3 cell lines in complete RPMI. To select for EGFR positive cell lines, cells were stained with PE-EGFR (Biolegend) and sorted by FACS. After sorting, EGFR positive cells were maintained in RPMI containing 10% FBS, 1% penicillin/streptomycin, and 1 ng/ml EGF to support cell viability. […] Shortly, cells were plated in 384-well plates (Greiner Bio-One) at 2000-3000 cells per well in technical triplicate. Seven different concentrations of TKIs or DMSO vehicle were added to reach a final volume of 40 μL per well. After 72 hours, 11 μL of Cell Titer Glo (Promega) was added to each well. Plates were incubated for a minimum of 10 minutes, and bioluminescence was determined using a FLUOstar OPTIMA plate reader (BMG LABTECH). Raw bioluminescence values were normalized to DMSO control treated cells, and values were plotted in GraphPad Prism. […] Drug screens were performed in technical triplicate on each plate and either duplicate or triplicate biological replicates. […] Statistical differences between groups were determined by ANOVA as described in the figure legends.

EGFR Ex19del/T790M/L792H = biological target: T16, EGFR Ex19del/T790M/L792H (Homo sapiens, UniProt P00533, DEL746-750/L792H/T790M); conditions: T790M-like-3R, 72 hours
T16 construct: expressed in transfected cells; host or cells: Ba/F3
Experimental: as §6, §2, §7

EGFR E709A G719S = biological target: T17, EGFR E709A G719S (Homo sapiens, UniProt P00533, E709A/G719S); conditions: Ba/F3 cells, EGFR E709A G719S (PACC), Mut/WT
T17 construct: expressed in transfected cells; host or cells: Ba/F3

EGFR E709A = biological target: T18, EGFR E709A (Homo sapiens, UniProt P00533, E709A); conditions: Ba/F3 cells, EGFR E709A (PACC), Mut/WT
T18 construct: expressed in transfected cells; host or cells: Ba/F3
Experimental: (§8) Data represent the ratio of the IC50 value for a given TKI for cells with a PACC EGFR mutation to the IC50 value for cells with wildtype EGFR.
as §2, §5

EGFR E709K = biological target: T19, EGFR E709K (Homo sapiens, UniProt P00533, E709K); conditions: Ba/F3 cells, EGFR E709K (PACC), Mut/WT
T19 construct: expressed in transfected cells; host or cells: Ba/F3

EGFR G719A = biological target: T20, EGFR G719A (Homo sapiens, UniProt P00533, G719A); conditions: Ba/F3 cells, EGFR G719A (PACC), Mut/WT
T20 construct: expressed in transfected cells; host or cells: Ba/F3
Experimental: as §8, §2, §5

EGFR G724S = biological target: T21, EGFR G724S (Homo sapiens, UniProt P00533, G724S); conditions: Ba/F3 cells, EGFR G724S (PACC), Mut/WT
T21 construct: expressed in transfected cells; host or cells: Ba/F3

EGFR L747P = biological target: T22, EGFR L747P (Homo sapiens, UniProt P00533, L747P); conditions: Ba/F3 cells, EGFR L747P (PACC), Mut/WT
T22 construct: expressed in transfected cells; host or cells: Ba/F3
Experimental: as §8, §2
After 48-72 hours of transduction, 2 μg/ml puromycin (Invitrogen) was added to Ba/F3 cell lines in complete RPMI. To select for EGFR positive cell lines, cells were stained with PE-EGFR (Biolegend) and sorted by FACS. After sorting, EGFR positive cells were maintained in RPMI containing 10% FBS, 1% penicillin/streptomycin, and 1 ng/ml EGF to support cell viability. Drug screening was performed as previously described^41,42. Shortly, cells were plated in 384-well plates (Greiner Bio-One) at 2000-3000 cells per well in technical triplicate. Seven different concentrations of TKIs or DMSO vehicle were added to reach a final volume of 40 μL per well. After 72 hours, 11 μL of Cell Titer Glo (Promega) was added to each well. Plates were incubated for a minimum of 10 minutes, and bioluminescence was determined using a FLUOstar OPTIMA plate reader (BMG LABTECH). Raw bioluminescence values were normalized to DMSO control treated cells, and values were plotted in GraphPad Prism. […] Drug screens were performed in technical triplicate on each plate and either duplicate or triplicate biological replicates. […] Statistical differences between groups were determined by ANOVA as described in the figure legends.

EGFR V769L = biological target: T23, EGFR V769L (Homo sapiens, UniProt P00533, V769L); conditions: Ba/F3 cells, EGFR V769L (PACC), Mut/WT
T23 construct: expressed in transfected cells; host or cells: Ba/F3
Experimental: as §8, §2, §5

EGFR V774M = biological target: T24, EGFR V774M (Homo sapiens, UniProt P00533, V774M); conditions: Ba/F3 cells, EGFR V774M (PACC), Mut/WT
T24 construct: host or cells: Ba/F3

EGFR Ex19del/L792H = biological target: T25, EGFR Ex19del/L792H (Homo sapiens, UniProt P00533, DEL746-750/L792H); conditions: Ba/F3 cells, EGFR Ex19del/L792H (PACC), Mut/WT
T25 construct: expressed in transfected cells; host or cells: Ba/F3
Experimental: as §8, §2, §5

EGFR Ex19del L718V = biological target: T26, EGFR Ex19del L718V (Homo sapiens, UniProt P00533, DEL746-750/L718V); conditions: Ba/F3 cells, EGFR Ex19del L718V (PACC), Mut/WT
T26 construct: expressed in transfected cells; host or cells: Ba/F3

EGFR L858R G724S = biological target: T27, EGFR L858R G724S (Homo sapiens, UniProt P00533, G724S/L858R); conditions: Ba/F3 cells, EGFR L858R G724S (PACC), Mut/WT
T27 construct: expressed in transfected cells; host or cells: Ba/F3 (retroviral transduction, pBabe-Puro based vectors)
Experimental: as §8, §2, §5

EGFR Ex19del T854I = biological target: T28, EGFR Ex19del T854I (Homo sapiens, UniProt P00533, DEL746-750/T854I); conditions: Ba/F3 cells, EGFR Ex19del T854I (PACC), Mut/WT
T28 construct: expressed in transfected cells; host or cells: Ba/F3 (retroviral transduction, pBabe-Puro based vectors)
Experimental: as §8, §2, §5

| SMILES | ratio of IC50 for cells with mutant EGFR to IC50 for cells with wildtype EGFR (Mut/WT) (EGFR L833V) | ratio of IC50 for cells with mutant EGFR to IC50 for cells with wildtype EGFR (Mut/WT) (EGFR K754E) | ratio of IC50 for cells with mutant EGFR to IC50 for cells with wildtype EGFR (Mut/WT) (EGFR S811F) | ratio of IC50 for cells with mutant EGFR to IC50 for cells with wildtype EGFR (Mut/WT) (EGFR A763insLQEA) | ratio of IC50 for cells with mutant EGFR to IC50 for cells with wildtype EGFR (Mut/WT) (EGFR D761N) | ratio of IC50 for cells with mutant EGFR to IC50 for cells with wildtype EGFR (Mut/WT) (EGFR A767insASV) | ratio of IC50 for cells with mutant EGFR to IC50 for cells with wildtype EGFR (Mut/WT) (EGFR S768dupSVD) | ratio of IC50 for cells with mutant EGFR to IC50 for cells with wildtype EGFR (Mut/WT) (EGFR D770insNPG) | ratio of IC50 for cells with mutant EGFR to IC50 for cells with wildtype EGFR (Mut/WT) (EGFR H773insNPH) | ratio of IC50 for cells with mutant EGFR to IC50 for cells with wildtype EGFR (Mut/WT) (EGFR N771dupN) | ratio of IC50 for cells with mutant EGFR to IC50 for cells with wildtype EGFR (Mut/WT) (EGFR T790M) | ratio of IC50 for cells with mutant EGFR to IC50 for cells with wildtype EGFR (Mut/WT) (EGFR G719S T790M) | ratio of IC50 for cells with mutant EGFR to IC50 for cells with wildtype EGFR (Mut/WT) (EGFR S768I/T790M) | ratio of IC50 for cells with mutant EGFR to IC50 for cells with wildtype EGFR (Mut/WT) (EGFR L858R T790M V843I) | ratio of IC50 for cells with mutant EGFR to IC50 for cells with wildtype EGFR (Mut/WT) (EGFR G724S T790M) | ratio of IC50 for cells with mutant EGFR to IC50 for cells with wildtype EGFR (Mut/WT) (EGFR Ex19del/T790M/L792H) | ratio of the IC50 value for cells with a PACC EGFR mutation to the IC50 value for cells with wildtype EGFR (EGFR E709A G719S) | ratio of the IC50 value for cells with a PACC EGFR mutation to the IC50 value for cells with wildtype EGFR (EGFR E709A) | ratio of the IC50 value for cells with a PACC EGFR mutation to the IC50 value for cells with wildtype EGFR (EGFR E709K) | ratio of the IC50 value for cells with a PACC EGFR mutation to the IC50 value for cells with wildtype EGFR (EGFR G719A) | other results |
| --- | --- | --- | --- | --- | --- | --- | --- | --- | --- | --- | --- | --- | --- | --- | --- | --- | --- | --- | --- | --- | --- |
| Cc1cc(C(=O)Nc2nc3cccc(Cl)c3n2[C@@H]2CCCCN(C(=O)/C=C/CN(C)C)C2)ccn1 [Nazartinib] | 0.002739 | 0.04749 | 0.00115 | 0.05507 | 0.0009686 | 0.6382 | 0.4008 | 0.529 | 0.4242 | 0.371 | 0.1166 | 0.04811 | 0.0197 | 0.02498 | 0.1867 | 4.292 | 0.09237 | 0.07784 | 0.0309 | 0.06775 | ratio of the IC50 value for cells with a PACC EGFR mutation to the IC50 value for cells with wildtype EGFR (EGFR G724S): 0.869; ratio of the IC50 value for cells with a PACC EGFR mutation to the IC50 value for cells with wildtype EGFR (EGFR L747P): 0.2221; ratio of the IC50 value for cells with a PACC EGFR mutation to the IC50 value for cells with wildtype EGFR (EGFR V769L): 0.1771; ratio of the IC50 value for cells with a PACC EGFR mutation to the IC50 value for cells with wildtype EGFR (EGFR V774M): 0.1179; ratio of the IC50 value for cells with a PACC EGFR mutation to the IC50 value for cells with wildtype EGFR (EGFR Ex19del/L792H): 0.5146; ratio of the IC50 value for cells with a PACC EGFR mutation to the IC50 value for cells with wildtype EGFR (EGFR Ex19del L718V): 0.04632; ratio of the IC50 value for cells with a PACC EGFR mutation to the IC50 value for cells with wildtype EGFR (EGFR L858R G724S): 0.009244; ratio of the IC50 value for cells with a PACC EGFR mutation to the IC50 value for cells with wildtype EGFR (EGFR Ex19del T854I): 1.135 |
| C=CC(=O)Nc1cc(Nc2nccc(-c3c[nH]c4ccccc34)n2)c(OC)cc1N(C)CCN(C)C [AZ5104] | 0.4446 | 0.01871 | 0.002871 | 0.03029 | 0.3285 | 4.661 | 1.73 | 1.976 | 3.997 | 0.6044 | 1.125 | 0.1839 | 1.619 | 0.6934 | 0.428 | 1.486 | 0.797 | 0.219 | 0.207 | 0.1896 | ratio of the IC50 value for cells with a PACC EGFR mutation to the IC50 value for cells with wildtype EGFR (EGFR G724S): 36.15; ratio of the IC50 value for cells with a PACC EGFR mutation to the IC50 value for cells with wildtype EGFR (EGFR L747P): 3.59; ratio of the IC50 value for cells with a PACC EGFR mutation to the IC50 value for cells with wildtype EGFR (EGFR V769L): 1.367; ratio of the IC50 value for cells with a PACC EGFR mutation to the IC50 value for cells with wildtype EGFR (EGFR V774M): 0.5635; ratio of the IC50 value for cells with a PACC EGFR mutation to the IC50 value for cells with wildtype EGFR (EGFR Ex19del/L792H): 1.778; ratio of the IC50 value for cells with a PACC EGFR mutation to the IC50 value for cells with wildtype EGFR (EGFR Ex19del L718V): 1.339; ratio of the IC50 value for cells with a PACC EGFR mutation to the IC50 value for cells with wildtype EGFR (EGFR L858R G724S): 0.001759; ratio of the IC50 value for cells with a PACC EGFR mutation to the IC50 value for cells with wildtype EGFR (EGFR Ex19del T854I): 1.699 |
